# Molecular target: human TrkA receptor (Homo sapiens (Human), UniProt P04629)
# Experiment: DiscoverX PathHunter TrkA functional assay (NGF-stimulated U2OS cells)
# Type: cell-based
# Details: U2OS cells expressing human TrkA-PK, Shc1-EA and p75NTR; compound 1 h, then NGF at ~80% of maximal response for 3 h; luminescence
# Sequence of human TrkA receptor (P04629 33-796): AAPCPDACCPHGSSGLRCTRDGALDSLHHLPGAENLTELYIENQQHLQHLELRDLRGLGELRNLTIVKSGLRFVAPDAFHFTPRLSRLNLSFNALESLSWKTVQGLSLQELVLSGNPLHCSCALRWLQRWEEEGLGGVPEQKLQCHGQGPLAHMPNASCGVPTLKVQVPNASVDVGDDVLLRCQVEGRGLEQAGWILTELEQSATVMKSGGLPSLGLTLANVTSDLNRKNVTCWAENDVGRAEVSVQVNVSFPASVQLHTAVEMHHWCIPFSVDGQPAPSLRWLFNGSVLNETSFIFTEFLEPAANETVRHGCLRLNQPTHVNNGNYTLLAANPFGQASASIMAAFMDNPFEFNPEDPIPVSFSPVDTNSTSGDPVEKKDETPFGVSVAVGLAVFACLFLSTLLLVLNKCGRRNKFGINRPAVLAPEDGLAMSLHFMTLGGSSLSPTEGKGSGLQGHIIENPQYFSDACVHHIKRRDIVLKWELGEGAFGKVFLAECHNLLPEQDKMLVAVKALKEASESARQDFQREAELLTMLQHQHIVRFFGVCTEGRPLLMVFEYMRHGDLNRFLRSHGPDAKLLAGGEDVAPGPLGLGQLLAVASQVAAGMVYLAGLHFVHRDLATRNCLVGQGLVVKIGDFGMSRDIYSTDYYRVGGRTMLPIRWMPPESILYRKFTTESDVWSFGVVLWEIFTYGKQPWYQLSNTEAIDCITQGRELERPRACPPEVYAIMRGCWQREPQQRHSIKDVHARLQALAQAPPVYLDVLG
row,SMILES,IC50 [nM]
1,"COCC(=O)NCc1ccc(NC(=O)c2cc(-c3ccn(C)n3)c(C(F)(F)F)cc2F)c(-c2ccccc2)n1 [Example 58, 2-fluoro-N-(6-((2-methoxyacetamido)methyl)-2-phenylpyridin-3-yl)-5-(1-methyl-1H-pyrazol-3-yl)-4-(trifluoromethyl)benzamide]",0.19
2,"Cn1ccc(-c2cc(C(=O)Nc3ccc(CNC(=O)CS(C)(=O)=O)nc3-c3ccccc3)c(F)cc2C(F)(F)F)n1 [Example 59, 2-fluoro-5-(1-methyl-1H-pyrazol-3-yl)-N-(6-((2-(methylsulfonyl)acetamido)methyl)-2-phenylpyridin-3-yl)-4-(trifluoromethyl)benzamide]",0.23
3,"COCC(=O)NCc1ncc(NC(=O)c2cc(-c3ccn(C)n3)c(C(F)(F)F)cc2F)c(-c2ccccc2)n1 [Example 64, 2-fluoro-N-(2-((2-methoxyacetamido)methyl)-4-phenylpyrimidin-5-yl)-5-(1-methyl-1H-pyrazol-3-yl)-4-(trifluoromethyl)benzamide]",0.44
4,"Cn1ccc(-c2cc(C(=O)Nc3ncc(CNC(=O)CO)nc3-c3ccccc3)c(F)cc2C(F)(F)F)n1 [Example 65, 2-fluoro-N-(5-((2-hydroxyacetamido)methyl)-3-phenylpyrazin-2-yl)-5-(1-methyl-1H-pyrazol-3-yl)-4-(trifluoromethyl)benzamide]",3.3
5,"Cn1ccc(-c2cc(C(=O)Nc3cnc(CNC(=O)CS(C)(=O)=O)nc3-c3ccccc3)c(F)cc2C(F)(F)F)n1 [Example 67, 2-fluoro-5-(1-methyl-1H-pyrazol-3-yl)-N-(2-((2-(methylsulfonyl)acetamido)methyl)-4-phenylpyrimidin-5-yl)-4-(trifluoromethyl)benzamide]",1.6
6,Cn1ccc(-c2cc(C(=O)Nc3cnc(CNC(=O)Cn4cncn4)nc3-c3ccccc3)c(F)cc2C(F)(F)F)n1 [Example 68],0.4
7,"Cn1ccc(-c2cc(C(=O)Nc3ncc(CNC(=O)CO)cc3-c3ccccc3)c(F)cc2C(F)(F)F)n1 [Example 69, 2-fluoro-N-(5-((2-hydroxyacetamido)methyl)-3-phenylpyridin-2-yl)-5-(1-methyl-1H-pyrazol-3-yl)-4-(trifluoromethyl)benzamide]",18
8,"Cn1ccc(-c2cc(C(=O)Nc3cnc(CNC(=O)CN4CCOC4=O)nc3-c3ccccc3)c(F)cc2C(F)(F)F)n1 [Example 70, 2-fluoro-5-(1-methyl-1H-pyrazol-3-yl)-N-(2-((2-(2-oxooxazolidin-3-yl)acetamido)methyl)-4-phenylpyrimidin-5-yl)-4-(trifluoromethyl)benzamide]",0.53
9,"Cn1ccc(-c2cc(C(=O)Nc3cnc(CNC(=O)[C@@H]4COCCN4)nc3-c3ccccc3)c(F)cc2C(F)(F)F)n1 [Example 74, (S)-N-((5-(2-fluoro-5-(1-methyl-1H-pyrazol-3-yl)-4-(trifluoromethyl)benzamido)-4-phenylpyrimidin-2-yl)methyl)morpholine-3-carboxamide]",2
10,"Cn1ccc(-c2cc(C(=O)Nc3cnc(CNS(C)(=O)=O)nc3-c3ccccc3)ccc2C(F)(F)F)n1 [Example 75, 3-(1-methyl-1H-pyrazol-3-yl)-N-(2-(methylsulfonamidomethyl)-4-phenylpyrimidin-5-yl)-4-(trifluoromethyl)benzamide]",12
11,"Cn1ccc(-c2cc(C(=O)Nc3cnc(CN4CCNC4=O)nc3-c3ccccc3)c(F)cc2C(F)(F)F)n1 [Example 77, 2-fluoro-5-(1-methyl-1H-pyrazol-3-yl)-N-(2-((2-oxoimidazolidin-1-yl)methyl)-4-phenylpyrimidin-5-yl)-4-(trifluoromethyl)benzamide]",1
12,"CN(Cc1ccc(NC(=O)c2cc(-c3ccn(C)n3)c(C(F)(F)F)cc2F)c(-c2ccccc2)n1)C(N)=O [Example 78, 2-fluoro-5-(1-methyl-1H-pyrazol-3-yl)-N-(6-((1-methylureido)methyl)-2-phenylpyridin-3-yl)-4-(trifluoromethyl)benzamide]",1.1
13,"CN(Cc1ccc(NC(=O)c2cc(-c3ccn(C)n3)c(C(F)(F)F)cc2F)c(-c2ccccc2)n1)C(=O)NCCO [Example 79, 2-fluoro-N-(6-((3-(2-hydroxyethyl)-1-methylureido)methyl)-2-phenylpyridin-3-yl)-5-(1-methyl-1H-pyrazol-3-yl)-4-(trifluoromethyl)benzamide]",1.1
14,"Cn1ccc(-c2cc(C(=O)Nc3cnc(COC(N)=O)nc3-c3ccccc3)c(F)cc2C(F)(F)F)n1 [Example 80, (5-(2-Fluoro-5-(1-methyl-1H-pyrazol-3-yl)-4-(trifluoromethyl)benzamido)-4-phenylpyrimidin-2-yl)methyl carbamate]",0.49
15,"Cc1cnn(-c2ccc(C(N)=O)cc2NC(=O)c2ccc(C(F)(F)F)c(-c3ccn(C)n3)c2)c1 [Example 86, N-(5-carbamoyl-2-(4-methyl-1H-pyrazol-1-yl)phenyl)-3-(1-methyl-1H-pyrazol-3-yl)-4-(trifluoromethyl)benzamide]",19
16,"Cn1ccc(-c2cc(C(=O)Nc3cc(C(N)=O)c(N)nc3-c3ccccc3)ccc2C(F)(F)F)n1 [Example 87, 2-amino-5-(3-(1-methyl-1H-pyrazol-3-yl)-4-(trifluoromethyl)benzamido)-6-phenylnicotinamide]",8.5
17,"O=C(Nc1cnc(C(=O)N2CCOCC2)nc1-c1ccccc1)c1ccc(C(F)(F)F)c(-c2cc[nH]n2)c1 [Example 88, N-(2-(morpholine-4-carbonyl)-4-phenylpyrimidin-5-yl)-3-(1H-pyrazol-3-yl)-4-(trifluoromethyl)benzamide]",1200
18,"Cn1ccc(-c2cc(C(=O)Nc3cc(C(N)=O)cnc3-c3ccccc3)ccc2C(F)(F)F)n1 [Example 89, 5-(3-(1-methyl-1H-pyrazol-3-yl)-4-(trifluoromethyl)benzamido)-6-phenylnicotinamide]",1.5
19,"CN1CC(NC(=O)c2cnc(-c3ccccc3)c(NC(=O)c3cc(-c4cc[nH]n4)c(C(F)(F)F)cc3F)c2)C1 [Example 90, 5-(2-fluoro-5-(1H-pyrazol-3-yl)-4-(trifluoromethyl)benzamido)-N-(1-methylazetidin-3-yl)-6-phenylnicotinamide]",80
20,"NC(=O)c1cnc(-c2ccccc2)c(NC(=O)c2cc(-c3ncccn3)c(C(F)(F)F)cc2F)c1 [Example 91, 5-(2-fluoro-5-(pyrimidin-2-yl)-4-(trifluoromethyl)benzamido)-6-phenylnicotinamide]",11
21,"O=C(NCc1cccnc1)c1cnc(-c2ccccc2)c(NC(=O)c2cc(-c3ncccn3)c(C(F)(F)F)cc2F)c1 [Example 92, 5-(2-fluoro-5-(pyrimidin-2-yl)-4-(trifluoromethyl)benzamido)-6-phenyl-N-(pyridin-3-ylmethyl)nicotinamide]",2.2
22,"NC(=O)c1cnc(-c2ccccc2)c(NC(=O)c2cc(-c3cc[nH]n3)c(C(F)(F)F)cc2F)c1 [Example 93, 5-(2-fluoro-5-(1H-pyrazol-3-yl)-4-(trifluoromethyl)benzamido)-6-phenylnicotinamide]",5.7

# Results, then the compound that gave them:
row,IC50 [nM],SMILES
1,1.1,"C[C@@H](O)C(=O)NCc1ncc(NC(=O)c2cc(-c3ccn(C)n3)c(C(F)(F)F)cc2F)c(-c2ccccc2)n1 [Example 60, (R)-2-fluoro-N-(2-((2-hydroxypropanamido)methyl)-4-phenylpyrimidin-5-yl)-5-(1-methyl-1H-pyrazol-3-yl)-4-(trifluoromethyl)benzamide]"
2,3.6,"C[C@@H](O)C(=O)NCc1cnc(NC(=O)c2cc(-c3ccn(C)n3)c(C(F)(F)F)cc2F)c(-c2ccccc2)n1 [Example 71, (R)-2-fluoro-N-(5-((2-hydroxypropanamido)methyl)-3-phenylpyrazin-2-yl)-5-(1-methyl-1H-pyrazol-3-yl)-4-(trifluoromethyl)benzamide]"
3,0.57,"C[C@H](O)C(=O)N(C)Cc1ccc(NC(=O)c2cc(-c3ccn(C)n3)c(C(F)(F)F)cc2F)c(-c2ccccc2)n1 [Example 72, (S)-2-fluoro-N-(6-((2-hydroxy-N-methylpropanamido)methyl)-2-phenylpyridin-3-yl)-5-(1-methyl-1H-pyrazol-3-yl)-4-(trifluoromethyl)benzamide]"
4,1,"C[C@@H](N)C(=O)NCc1ncc(NC(=O)c2cc(-c3ccn(C)n3)c(C(F)(F)F)cc2F)c(-c2ccccc2)n1 [Example 73, (R)-N-(2-((2-aminopropanamido)methyl)-4-phenylpyrimidin-5-yl)-2-fluoro-5-(1-methyl-1H-pyrazol-3-yl)-4-(trifluoromethyl)benzamide]"
5,0.84,"Cn1ccc(-c2cc(C(=O)Nc3cnc(CNC(N)=O)nc3-c3ccccc3)c(F)cc2C(F)(F)F)n1 [Example 76, 2-Fluoro-5-(1-methyl-1H-pyrazol-3-yl)-N-(4-phenyl-2-(ureidomethyl)pyrimidin-5-yl)-4-(trifluoromethyl)benzamide]"
6,14,"Cn1ccc(-c2cc(C(=O)Nc3cc(C(=O)O)cnc3-c3ccccc3)c(F)cc2C(F)(F)F)n1 [Example 81, 5-(2-Fluoro-5-(1-methyl-1H-pyrazol-3-yl)-4-(trifluoromethyl)benzamido)-6-phenylnicotinic acid]"
7,11,"CN(C)C(=O)c1cnc(-c2ccccc2)c(NC(=O)c2cc(-c3ccn(C)n3)c(C(F)(F)F)cc2F)c1 [Example 82, 5-(2-Fluoro-5-(1-methyl-1H-pyrazol-3-yl)-4-(trifluoromethyl)benzamido)-N,N-dimethyl-6-phenylnicotinamide]"
8,1.1,"CNC(=O)c1cnc(-c2ccccc2)c(NC(=O)c2cc(-c3ccn(C)n3)c(C(F)(F)F)cc2F)c1 [Example 83, 5-(2-fluoro-5-(1-methyl-1H-pyrazol-3-yl)-4-(trifluoromethyl)benzamido)-N-methyl-6-phenylnicotinamide]"
9,1.2,"C[C@H](O)CNC(=O)c1cnc(-c2ccccc2)c(NC(=O)c2cc(-c3ccn(C)n3)c(C(F)(F)F)cc2F)c1 [Example 84, (S)-5-(2-fluoro-5-(1-methyl-1H-pyrazol-3-yl)-4-(trifluoromethyl)benzamido)-N-(2-hydroxypropyl)-6-phenylnicotinamide]"
10,0.58,"C[C@@H](CO)NC(=O)c1cnc(-c2ccccc2)c(NC(=O)c2cc(-c3ccn(C)n3)c(C(F)(F)F)cc2F)c1 [Example 85, (S)-5-(2-fluoro-5-(1-methyl-1H-pyrazol-3-yl)-4-(trifluoromethyl)benzamido)-N-(1-hydroxypropan-2-yl)-6-phenylnicotinamide]"
